The values below come from PubChem BioAssay AID1259407 (Chemical Carcinogenesis Research Information System (CCRIS), 2018).

The source made the active and inactive calls. How the calls were made is not given here.

The data set relates to CCRIS mutagenicity, Ames/micronucleus/aberration tests. Kind of data set: CCRIS mutagenicity studies.
Setting [1] is: Test System: AMES SALMONELLA TYPHIMURIUM, Strain/Indicator: TA100, Metabolic Activation: NONE, Method: STANDARD PLATE.
[2] abbreviates: Test System: AMES SALMONELLA TYPHIMURIUM, Strain/Indicator: TA1537, Metabolic Activation: NONE, Method: STANDARD PLATE.
The mark [3] stands for this setting: Test System: AMES SALMONELLA TYPHIMURIUM, Strain/Indicator: TA100, Metabolic Activation: NONE, Method: PREINCUBATION
[4] abbreviates: Test System: AMES SALMONELLA TYPHIMURIUM, Strain/Indicator: TA98, Metabolic Activation: NONE, Method: STANDARD PLATE.

With `O=C(O)c1cc2c(c3c1c([N+](=O)[O-])cc1ccccc13)OCO2`, the mutagenic call is, setting by setting: (Test System: AMES SALMONELLA TYPHIMURIUM, Strain/Indicator: TA98, Metabolic Activation: RAT, LIVER, S-9, Method: STANDARD PLATE) “inactive; negative”; under setting [1], “active; positive”; (Test System: AMES SALMONELLA TYPHIMURIUM, Strain/Indicator: TA100, Metabolic Activation: RAT, LIVER, CYTOSOL, Method: STANDARD PLATE) “active; positive”; (Test System: AMES SALMONELLA TYPHIMURIUM, Strain/Indicator: TA100, Metabolic Activation: RAT, LIVER, MICROSOMES, Method: STANDARD PLATE) “active; positive”; (Test System: AMES SALMONELLA TYPHIMURIUM, Strain/Indicator: TA100, Metabolic Activation: RAT, LIVER, S-9, 3-METHYLCHOLANTHRENE, Method: STANDARD PLATE) “active; positive”; under setting [2], “active; positive”. Besides, the mutagenic call was “active; positive” (Test System: AMES SALMONELLA TYPHIMURIUM, Strain/Indicator: YG1020, Metabolic Activation: NONE, Method: STANDARD PLATE); “active; positive” (Test System: AMES SALMONELLA TYPHIMURIUM, Strain/Indicator: YG1021, Metabolic Activation: NONE, Method: STANDARD PLATE); “active; positive” (Test System: AMES SALMONELLA TYPHIMURIUM, Strain/Indicator: YG1024, Metabolic Activation: NONE, Method: STANDARD PLATE); “active; positive” (Test System: AMES SALMONELLA TYPHIMURIUM, Strain/Indicator: YG1025, Metabolic Activation: NONE, Method: STANDARD PLATE); “active; positive” (Test System: AMES SALMONELLA TYPHIMURIUM, Strain/Indicator: YG1026, Metabolic Activation: NONE, Method: STANDARD PLATE); “active; positive” (Test System: AMES SALMONELLA TYPHIMURIUM, Strain/Indicator: YG1029, Metabolic Activation: NONE, Method: STANDARD PLATE).
`O=c1c2c(c3ccc4[nH]cccc4c3c1O)O2`: the mutagenic call under setting [1] is “inactive; negative”.
`C[n+]1ccc(-c2cc[n+](C)cc2)cc1`: the mutagenic call runs as follows: (End Point: IN VIVO MICRONUCLEUS, Test System: BONE MARROW POLYCHROMATIC ERYTHROCYTES, Species: RAT, Strain/Sex: SPRAGUE DAWLEY/MALE, Route: DERMAL) “active; positive; maximal response at 48 hr”; (Test System: AMES SALMONELLA TYPHIMURIUM, Strain/Indicator: TA102, Metabolic Activation: NONE, Method: STANDARD PLATE) “inactive; negative”; (Test System: AMES SALMONELLA TYPHIMURIUM, Strain/Indicator: TA2638, Metabolic Activation: NONE, Method: STANDARD PLATE) “inactive; negative”; (Test System: CHINESE HAMSTER G10, Strain/Indicator: G10 (GPT)/6-THIOGUANINE, Metabolic Activation: NONE) “inactive; negative”; (Test System: CHINESE HAMSTER G12, Strain/Indicator: G12 (GPT)/6-THIOGUANINE, Metabolic Activation: NONE) “inactive; negative”; (Test System: CHINESE HAMSTER V-79, Strain/Indicator: V-79 (HPRT)/6-THIOGUANINE, Metabolic Activation: NONE) “inactive; negative”. Besides, the mutagenic call was “inactive; negative” (Test System: E. COLI, Strain/Indicator: WP2 (PKM101), Metabolic Activation: NONE, Method: STANDARD PLATE) and “inactive; negative” (Test System: E. COLI, Strain/Indicator: WP2 UVRA (PKM101), Metabolic Activation: NONE, Method: STANDARD PLATE).
As for `Nc1[nH]c(=O)nc2c1ncn2[C@H]1C[C@H](O)[C@@H](CO)O1`, the mutagenic call under setting [3] is “inactive; negative”.
As for `Nc1ccc([N+](=O)[O-])c(N)c1`, the mutagenic call was “inactive; negative” (Test System: AMES SALMONELLA TYPHIMURIUM, Strain/Indicator: TA97, Metabolic Activation: HAMSTER, LIVER, S-9, AROCLOR 1254 (10%), Method: PREINCUBATION); “inactive; negative” (Test System: AMES SALMONELLA TYPHIMURIUM, Strain/Indicator: TA97, Metabolic Activation: NONE, Method: PREINCUBATION); “inactive; negative” (Test System: AMES SALMONELLA TYPHIMURIUM, Strain/Indicator: TA97, Metabolic Activation: RAT, LIVER, S-9, AROCLOR 1254 (5, 10 OR 30%), Method: PREINCUBATION); “active; positive” (Test System: AMES SALMONELLA TYPHIMURIUM, Strain/Indicator: TA98, Metabolic Activation: HAMSTER, LIVER, S-9, AROCLOR 1254 (10%), Method: PREINCUBATION); “active; positive” (Test System: AMES SALMONELLA TYPHIMURIUM, Strain/Indicator: TA98, Metabolic Activation: NONE, Method: PREINCUBATION); “active; positive” (Test System: AMES SALMONELLA TYPHIMURIUM, Strain/Indicator: TA98, Metabolic Activation: RAT, LIVER, S-9, AROCLOR 1254 (10%), Method: PREINCUBATION). The mutagenic call (Test System: AMES SALMONELLA TYPHIMURIUM, Strain/Indicator: TA100, Metabolic Activation: HAMSTER, LIVER, S-9, AROCLOR 1254 (10%), Method: PREINCUBATION) was “inactive; negative”; the mutagenic call under setting [3] was “inactive; negative”; the mutagenic call (Test System: AMES SALMONELLA TYPHIMURIUM, Strain/Indicator: TA100, Metabolic Activation: RAT, LIVER, S-9, AROCLOR 1254 (10%), Method: PREINCUBATION) was “inactive; negative”; the mutagenic call (Test System: AMES SALMONELLA TYPHIMURIUM, Strain/Indicator: TA1535, Metabolic Activation: HAMSTER, LIVER, S-9, AROCLOR 1254 (10%), Method: PREINCUBATION) is “inactive; negative”; the mutagenic call (Test System: AMES SALMONELLA TYPHIMURIUM, Strain/Indicator: TA1535, Metabolic Activation: NONE, Method: PREINCUBATION) is “inactive; negative”; the mutagenic call (Test System: AMES SALMONELLA TYPHIMURIUM, Strain/Indicator: TA1535, Metabolic Activation: RAT, LIVER, S-9, AROCLOR 1254 (10%), Method: PREINCUBATION) was “inactive; negative”. For the same compound, the mutagenic call by setting is: (Test System: AMES SALMONELLA TYPHIMURIUM, Strain/Indicator: TA1537, Metabolic Activation: HAMSTER, LIVER, S-9, AROCLOR 1254 (10%), Method: PREINCUBATION) “active; positive”; (Test System: AMES SALMONELLA TYPHIMURIUM, Strain/Indicator: TA1537, Metabolic Activation: NONE, Method: PREINCUBATION) “inactive; negative”; (Test System: AMES SALMONELLA TYPHIMURIUM, Strain/Indicator: TA1537, Metabolic Activation: RAT, LIVER, S-9, AROCLOR 1254 (10%), Method: PREINCUBATION) “inactive; negative”.
`O=Nc1c(-c2ccc([N+](=O)[O-])cc2)nc2sccn12`: the mutagenic call runs as follows: under setting [4], “active; positive”; under setting [1], “active; positive”; (Test System: AMES SALMONELLA TYPHIMURIUM, Strain/Indicator: TA1535, Metabolic Activation: NONE, Method: STANDARD PLATE) “active; positive”; under setting [2], “active; positive”; (Test System: AMES SALMONELLA TYPHIMURIUM, Strain/Indicator: TA1538, Metabolic Activation: NONE, Method: STANDARD PLATE) “active; positive”.
With `CC(C)c1cc(-c2ccccc2)ccc1N`, the mutagenic call runs as follows: under setting [4], “inactive; negative”; (Test System: AMES SALMONELLA TYPHIMURIUM, Strain/Indicator: TA98, Metabolic Activation: RAT LIVER S-9, AROCLOR, Method: STANDARD PLATE) “active; positive”; under setting [1], “inactive; negative”; (Test System: AMES SALMONELLA TYPHIMURIUM, Strain/Indicator: TA100, Metabolic Activation: RAT LIVER S-9, AROCLOR, Method: STANDARD PLATE) “active; positive”.
As for `Clc1ccc(-c2ccccc2)cc1`, the mutagenic call by setting is: (End Point: In vitro micronucleus, Test System: Chinese hamster lung fibroblasts (V79 cells), Metabolic Activation: None) “inactive; negative”; (End Point: In vivo mutagenicity, Test System: Lung, Species: Rat, Strain/Sex: Big Blue/male, Route: Intraperitoneal) “inactive; negative (2-fold increase in mutant frequency for 4-chlorobiphenyl and its metab”; (Test System: Chinese hamster lung fibroblasts, Strain/Indicator: V79 (HPRT)/6-thioguanine, Metabolic Activation: None, Method: Standard plate) “inactive; negative. study examines mutagenicity of metabolites synthesized in lab and iden”.
For `CC(=O)Nc1ccc(Oc2ccc(NC(C)=O)cc2)cc1`, the mutagenic call is “inactive; negative” under setting [4]; “inactive; negative” (Test System: AMES SALMONELLA TYPHIMURIUM, Strain/Indicator: TA98, Metabolic Activation: RAT, LIVER, S-9, PCB, Method: STANDARD PLATE); “inactive; negative” under setting [1]; “inactive; negative” (Test System: AMES SALMONELLA TYPHIMURIUM, Strain/Indicator: TA100, Metabolic Activation: RAT, LIVER, S-9, PCB, Method: STANDARD PLATE).
With `C=C.CC(N)c1ccccc1.[Cl-].[Cl-].[Pt+2]` (configuration not stated), the mutagenic call was “inactive; negative” (Test System: AMES SALMONELLA TYPHIMURIUM, Strain/Indicator: TA92, Metabolic Activation: NONE, Method: STANDARD PLATE); “inactive; negative” under setting [4]; “inactive; negative” under setting [1]; “inactive; negative” (Test System: AMES SALMONELLA TYPHIMURIUM, Strain/Indicator: TA2410, Metabolic Activation: NONE, Method: STANDARD PLATE).
